The source of these data is PubChem BioAssay (NCI).

Some test systems named below: RPMI-8226 leukemia; 786-0 renal; U251 CNS; RXF 393 renal; NCI-H23 lung; CCRF-CEM leukemia; SK-MEL-5 melanoma; HCT-116 colon; SF-295 CNS; IGROV1 ovarian.
What all share (experiment): NCI anticancer screen, dose series, 48 h

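Step 1: Grow cells in 96-well plates. Step 2: Expose to compound for 48 hours at 5 concentrations. Step 3: Interpolate endpoints linearly; if unreached, use highest concentration. The concentration for 50% growth inhibition is given as GI50. TGI denotes the concentration required for complete inhibition of growth.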

Regarding `CC(=O)N[C@H](C(=O)N[C@@H](CCCNC(=N)N)C(=O)N[C@@H](CCCCN)C(=O)N[C@@H](CCCNC(=N)N)C(=O)N[C@]1(C)CCCCCC/C=C\CCC[C@@](C)(C(=O)N[C@@H](CCCNC(=N)N)C(=O)N[C@@H](CCC(=O)O)C(=O)N[C@@H](CC(C)C)C(=O)N[C@H](C(=O)N[C@@H](CCC(=O)O)C(N)=O)C(C)C)NC(=O)[C@H](CCC(N)=O)NC(=O)[C@H](CC(C)C)NC(=O)[C@H](CC(C)C)NC(=O)[C@H](CCCNC(=N)N)NC(=O)[C@H](CCCNC(=N)N)NC(=O)[C@H](CC(C)C)NC1=O)C(C)C`, the GI50 is 6.48 µM in the test on RPMI-8226 leukemia; 1.24 µM in the test on 786-0 renal; 3.79 µM in the test with U251 CNS; 1.34 µM in the test with RXF 393 renal; 2.77 µM with NCI-H23 lung; 7.28 µM with CCRF-CEM leukemia. Further, the GI50 was 1.1 µM in the test on SK-MEL-5 melanoma, 12 µM with HCT-116 colon and 4.4 µM in the test with SF-295 CNS. Besides, the TGI with RPMI-8226 leukemia is 20.9 µM; in the test on 786-0 renal, 2.91 µM; in the test with U251 CNS, 36.6 µM; in the test with RXF 393 renal, 4.77 µM; with NCI-H23 lung, 30.1 µM; in the test with CCRF-CEM leukemia it was 26.7 µM. The TGI in the test with SK-MEL-5 melanoma amounted to 2.62 µM; in the test on HCT-116 colon it was 37.6 µM; with SF-295 CNS it was 30.1 µM.

Consider `CC1(C)OC2COC3(CNO)OC(C)(C)OC3C2O1` (stereo unspecified), for which the TGI with 786-0 renal, in the test on U251 CNS, in the test with RXF 393 renal, in the test with NCI-H23 lung, in the test with CCRF-CEM leukemia and in the test with SK-MEL-5 melanoma was greater than 100 µM throughout. In addition, the TGI with HCT-116 colon, in the test with SF-295 CNS and in the test with IGROV1 ovarian was greater than 100 µM throughout.

In the case of `COc1ccc(Nc2nc3ccccc3nc2-c2cccs2)cc1`, the TGI with 786-0 renal, in the test with U251 CNS, with RXF 393 renal, with NCI-H23 lung, in the test on CCRF-CEM leukemia and in the test on SK-MEL-5 melanoma was greater than 100 µM in each case. The TGI in the test on HCT-116 colon, with SF-295 CNS and in the test on IGROV1 ovarian was greater than 100 µM each time.

With `COc1ccc(/C=C2/CCc3cc4ccc(OC)cc4[o+]c32)c(O)c1`, the GI50 with RPMI-8226 leukemia was 3.17 µM; in the test with 786-0 renal, 3.97 µM; in the test on U251 CNS, 2.3 µM; in the test with RXF 393 renal, 7.08 µM; in the test on NCI-H23 lung it was 10.4 µM; in the test on CCRF-CEM leukemia, 3.88 µM. Besides, the GI50 in the test with SK-MEL-5 melanoma was 14 µM; in the test with SF-295 CNS it was 16.3 µM; with IGROV1 ovarian it was 2.71 µM. In addition, the TGI is 12.9 µM with RPMI-8226 leukemia; 19.8 µM in the test on 786-0 renal; 5.57 µM with U251 CNS; 24.6 µM with RXF 393 renal; 30.1 µM with NCI-H23 lung; greater than 100 µM in the test with CCRF-CEM leukemia. Further, the TGI in the test on SK-MEL-5 melanoma was found to be 41.1 µM; in the test with SF-295 CNS it was 38 µM; with IGROV1 ovarian it was 27.6 µM.

Take `OC(CN1CC1)C(O)CN1CC1` (stereo unspecified): the GI50 in the test on 786-0 renal, in the test with U251 CNS, in the test with RXF 393 renal, in the test on NCI-H23 lung, in the test with CCRF-CEM leukemia and in the test on SK-MEL-5 melanoma was greater than 50 µg/mL in each case. Besides, the GI50 in the test with HCT-116 colon, in the test on SF-295 CNS and in the test on IGROV1 ovarian was greater than 50 µg/mL each time. Besides, the TGI with 786-0 renal, in the test on U251 CNS, with RXF 393 renal, in the test on NCI-H23 lung, in the test with CCRF-CEM leukemia and in the test on SK-MEL-5 melanoma was greater than 50 µg/mL throughout. In addition, the TGI in the test with HCT-116 colon, with SF-295 CNS and in the test with IGROV1 ovarian was greater than 50 µg/mL in each case.

`CSc1c(C)c(C)nn1-c1ccccc1`: the TGI with RPMI-8226 leukemia, in the test on 786-0 renal, in the test on U251 CNS, in the test with RXF 393 renal, in the test on NCI-H23 lung and with CCRF-CEM leukemia was greater than 100 µM in each case. Besides, the TGI in the test with SK-MEL-5 melanoma, with SF-295 CNS and in the test on IGROV1 ovarian was greater than 100 µM each time.

Consider `CC1=C(C(=O)Nc2ccccc2C)C(/C=C/c2ccccc2)C(C(=O)Nc2ccccc2C)=C(C)N1`, for which the TGI with 786-0 renal, in the test on U251 CNS, in the test on RXF 393 renal, with NCI-H23 lung, with CCRF-CEM leukemia and in the test with SK-MEL-5 melanoma was greater than 100 µM in each case. The TGI in the test on HCT-116 colon, in the test with SF-295 CNS and in the test with IGROV1 ovarian was greater than 100 µM each time.

Consider `CCCCCCCCCCCCCCCCCCNC(=O)[C@H]1CSC(c2cccs2)N1` (stereo partly specified), for which the GI50 in the test on RPMI-8226 leukemia is 0.985 µM; in the test with 786-0 renal it was 1.13 µM; in the test on U251 CNS, 0.929 µM; in the test with RXF 393 renal it was 0.973 µM; in the test with NCI-H23 lung, 1.8 µM; with CCRF-CEM leukemia it was 0.372 µM. Moreover, the figures for the GI50 in the test on HCT-116 colon and in the test on SF-295 CNS were 0.945 µM and 5.58 µM, respectively. The TGI was 2.41 µM in the test with RPMI-8226 leukemia; 2.49 µM in the test with 786-0 renal; 1.74 µM in the test on U251 CNS; 1.72 µM in the test on RXF 393 renal; 17.7 µM in the test with NCI-H23 lung; 2.03 µM in the test on CCRF-CEM leukemia. Also, the figures for the TGI in the test on HCT-116 colon and in the test with SF-295 CNS were 1.8 µM and greater than 50 µM, respectively.
